The test system of one assay is Haemophilus influenzae. Type of assay: cell-based. Particulars: Gram negative Haemophilus influenzae.
In another assay the test system is Enterococcus faecalis. Type of assay: cell-based. The following applies: Gram positive Enterococcus faecalis.
Assay [1] relates to M. smegmatis transformed with mutant atpE (D32V). It is filed as cell-based. The following applies: wild-type M. smegmatis transformed with plasmid containing mutant F0 fragment (D32V); MIC practically identical to resistant strain R09.
A further assay concerns Streptococcus pneumoniae. It is filed as cell-based. Particulars: Gram positive Streptococcus pneumoniae.
In a further assay the test system is M. marinum. As to the kind of experiment: microbe, parasite or virus in culture. Type of assay: cell-based. The following applies: Mycobacterium marinum, read-out: MIC Median values.
For another assay, the system named is M. smegmatis. The assay is described as follows: MIC against M. smegmatis. It is filed as cell-based, Mycobacterium smegmatis. The following applies: Mycolicibacterium smegmatis, 7 strains, read-out: MIC Median values. From the text:
Table. 1 The minimum inhibitory concentrations (MICs) of the lead DARQ compound (J), that inhibited 90% of the growth of different mycobacterial species. the number of strains tested were n=1, unless otherwise indicated.

The next assay relates to Corynebacterium. As to the kind of experiment: microbe, parasite or virus in culture. Type of assay: cell-based.
In the next assay the test system is M. bovis. The assay is described as follows: microbe, parasite or virus in culture. It is filed as cell-based. The following applies: Mycobacterium tuberculosis variant bovis, read-out: MIC Median values.
The subject of a further assay is Escherichia coli. It is filed as cell-based. Particulars: Gram negative Escherichia coli.
In a further assay the test system is M. abscessus. The assay is described as follows: microbe, parasite or virus in culture. The following applies: Mycobacteroides abscessus, read-out: MIC Median values. It is filed as cell-based, Mycobacterium abscessus.
For a further assay, the system named is M. fortuitum. As to the kind of experiment: microbe, parasite or virus in culture. Type of assay: cell-based, Mycobacterium fortuitum.
In another assay the test system is Helicobacter pylori. Type of assay: cell-based. The following applies: Gram negative Helicobacter pylori.
The test system of a further assay is M. tuberculosis. As to the kind of experiment: microbe, parasite or virus in culture. It is filed as cell-based. The following applies: Mycobacterium tuberculosis.
Assay [2] concerns MDR-TB strains and fully drug-susceptible strains. It is filed as cell-based, Mycobacterium tuberculosis.
The test system of another assay is M. kansasii. The assay is described as follows: microbe, parasite or virus in culture. It is filed as cell-based. The following applies: Mycobacterium kansasii, read-out: MIC Median values.
The test system of the next assay is Staphylococcus aureus. As to the kind of experiment: microbe, parasite or virus in culture. Type of assay: cell-based. The following applies: Staphylococcus aureus including methicillin-resistant strains.
For assay [3], the system named is M. tuberculosis in log-phase growth. It is filed as cell-based, Mycobacterium tuberculosis.
For another assay, the system named is Nocardia. The assay is described as follows: microbe, parasite or virus in culture. Type of assay: cell-based.
The subject of assay [4] is wild type M. tuberculosis. It is filed as cell-based, Mycobacterium tuberculosis.
The test system of assay [5] is M. avium complex. As to the kind of experiment: microbe, parasite or virus in culture. Type of assay: cell-based. Particulars: Mycobacterium avium, 7 strains, read-out: MIC Median values.
Assay [6] relates to M. avium complex. Particulars: statement in discussion; cited from earlier work.

Each structure is given as a SMILES string. ≈ marks a conversion by molar mass, not a printed value. Where “and” joins values, the source holds several entries; their conditions need not be identical. Equal entries are not always repeated. Where two headings read alike, the source gives them in different places.

Turning to `COc1nc2ccc(Br)cc2cc1[C@@H](c1ccccc1)[C@@](O)(CCN(C)C)c1cccc2ccccc12` [J], the activity entry with Haemophilus influenzae, in the assay on Enterococcus faecalis, with Streptococcus pneumoniae, with Escherichia coli and in the assay with Helicobacter pylori was “not active” throughout. Further, the “susceptibility of transformed cells” value in assay [1] is listed as “resistant”. The MIC was determined as 0.003 µg/mL (≈ 0.0054 µM) with M. marinum; 0.007 µg/mL (≈ 0.0126 µM) with M. smegmatis; 4 µg/mL (≈ 7.2 µM) in the assay with Corynebacterium; 0.003 µg/mL (≈ 0.0054 µM) in the assay with M. bovis; 0.25 µg/mL (≈ 0.45 µM) with M. abscessus; 0.01 µg/mL (≈ 0.018 µM) in the assay on M. fortuitum (Mycolicibacterium fortuitum, M. fortuitum, 3 strains, read-out: MIC Median values). Also, the MIC was 0.03 µg/mL (≈ 0.054 µM) in the assay on M. tuberculosis (H37RV, read-out: MIC Median values); 0.06 µg/mL (≈ 0.108 µM) with M. tuberculosis (read-out: median MIC); 0.003 µg/mL (≈ 0.0054 µM) in the assay on M. kansasii; greater than 32 µg/mL against Staphylococcus aureus; greater than 4 µg/mL against Nocardia; 0.01 µg/mL (≈ 0.018 µM) in the assay with M. avium complex [5]. Also, in the assay on M. fortuitum (M. fortuitum resistant to fluoroquinolone, 2 strains), the “MIC Median values” worked out at 0.010 µg/mL (≈ 0.018 µM). Moreover, in assay [2], the “isolates of MDR-TB found susceptible” value was 43% and 57%. In addition, the “strains with MIC below 0.010 μg/ml” value in assay [2] is “only one of 10”. Besides, the susceptibility of strains entry in assay [2] is “all strains were susceptible”. For the same compound, the “reduction in bacterial counts” value in assay [3] was 10^3 log. In addition, the “effect on ATP production (total cellular ATP)” value in assay [4] is on record as “dose dependent decrease in ATP production”.
Regarding `NNC(=O)c1ccncc1` [isoniazid], the “activity against MAC” value in the assay with M. avium complex [6] is given as “no activity”. For the same compound, the “effect on ATP production (total cellular ATP)” value in assay [4] is “no effect”.

The values are drawn from patent US8378085B2, “Bacterial ATP synthase binding domain” (priority 2004, dated 2013).
